In patent publication US20260306640A1, “TECHNOLOGIES TARGETING CELL STATES” (Auron Therapeutics, Inc., priority 2023, published 2026):

Molecular target: KAT2A (Homo sapiens, UniProt Q92830)
Experiment: KAT2A degradation, Western Blot (Jess), MOLM-13 cells
Type: cell-based
Design: degrader, Western blot
Conditions: MOLM-13 cells, KAT2A, 24 h, Western Blot, vs DMSO; read-out: KAT2A MOLM-13 DC50
Protocol: MOLM-13 cells or NCI-H1048 cells were used for Western Blot analysis of KAT2A degradation. KAT2B degradation can be measured in a similar manner with NCI-H1048 cells.
MOLM-13 cells were maintained at 37° C. in 5% CO2 and 90% humidity in RPMI 1640 supplemented with 20% fetal bovine serum (FBS) and 1× penicillin/streptomycin. Cells were plated in full media at 1-2 million cells/2 mL in a 6-well tissue culture treated plate with or without compounds for 24 h at 37° C. in 5% CO2.
MOLM-13 cells or NCI-H1048 cells were washed with PBS, then lysed with RIPA buffer containing 1×protease and phosphatase inhibitors (SantaCruz Biotechnologies Cat #sc-24948A). Protein was isolated by centrifugation at 12,000×g for 10 minutes at 4° C. and supernatant was collected. Protein was quantified via Bradford assay. Samples were diluted to 4 μg lysate in 16 μL RIPA buffer and then 4 μL of Jess Sample Buffer. Samples were heated at 95° C. for 5 minutes. Samples were loaded onto 12-230 kDa Jess™ Separation Module, 8×25 capillary cartridges (SM-W004, Biotechne). Antibodies loaded were: Primary antibody for KAT2A (GCN5L2 (C26A10) Rabbit mAb (3305, CST)) and for KAT2B (PCAF (C14G9)) Rabbit mAb (3378, CST) at 1:1000 and Anti-Rabbit Detection Module for Jess™ (Cat No #DM-001, Biotechne). Signal was detected by chemiluminescence.
DC50 values were determined from percent reduction of protein as compared to the DMSO control.

KAT2A, sequence (Q92830 whole entry): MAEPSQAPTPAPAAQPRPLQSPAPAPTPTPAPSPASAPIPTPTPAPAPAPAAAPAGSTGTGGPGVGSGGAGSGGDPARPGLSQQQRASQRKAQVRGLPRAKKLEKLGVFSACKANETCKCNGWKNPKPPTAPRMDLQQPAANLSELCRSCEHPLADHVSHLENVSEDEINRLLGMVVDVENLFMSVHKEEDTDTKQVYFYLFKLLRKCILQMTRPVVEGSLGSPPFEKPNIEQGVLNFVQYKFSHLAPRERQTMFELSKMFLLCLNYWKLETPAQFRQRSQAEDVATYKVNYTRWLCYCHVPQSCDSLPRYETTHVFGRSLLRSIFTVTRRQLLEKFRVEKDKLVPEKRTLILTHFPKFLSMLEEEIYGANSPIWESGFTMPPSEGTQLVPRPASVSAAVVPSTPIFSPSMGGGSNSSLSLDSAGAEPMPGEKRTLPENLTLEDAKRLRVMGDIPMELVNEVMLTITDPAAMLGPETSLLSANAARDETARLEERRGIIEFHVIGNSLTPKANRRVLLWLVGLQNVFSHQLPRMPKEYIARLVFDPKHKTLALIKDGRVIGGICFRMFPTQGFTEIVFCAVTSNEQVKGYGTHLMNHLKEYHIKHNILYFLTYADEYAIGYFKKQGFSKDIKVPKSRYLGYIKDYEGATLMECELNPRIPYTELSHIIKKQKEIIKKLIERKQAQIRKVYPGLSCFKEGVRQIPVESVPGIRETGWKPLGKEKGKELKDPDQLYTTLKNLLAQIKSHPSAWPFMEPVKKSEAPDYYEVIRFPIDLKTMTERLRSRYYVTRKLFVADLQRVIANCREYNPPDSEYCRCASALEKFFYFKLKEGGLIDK

Structure (SMILES) | DC50 [nM]
CN1C[C@H](Nc2cnn(C)c(=O)c2Br)C[C@H](c2ccc(C(=O)N3CCC(c4ccc5c(c4)CN(C4CCC(=O)NC4=O)C5=O)CC3)cc2)C1 (stereo partly drawn) [Compound 73] | 1 to 30
CN1C[C@H](Nc2cnn(C)c(=O)c2Cl)C[C@H](c2ccc(CN3CCN(Cc4ccc5c(c4)CN(C4CCC(=O)NC4=O)C5=O)CC3)cc2)C1 (stereo partly drawn) [Compound 75] | 1 to 30
CN1C[C@H](Nc2cnn(C)c(=O)c2Cl)C[C@H](c2ccc(C(=O)N3CCN(Cc4ccc5c(c4)CN(C4CCC(=O)NC4=O)C5=O)CC3)cc2)C1 (stereo partly drawn) [Compound 76] | 1 to 30
CN1C[C@H](Nc2cnn(C)c(=O)c2Cl)C[C@H](c2ccc(C(=O)N3CCC(c4ccc5c(c4)CN(C4CCC(=O)NC4=O)C5=O)CC3)cc2)C1 (stereo partly drawn) [Compound 77] | 1 to 30
CN1C[C@H](Nc2cnn(C)c(=O)c2Br)C[C@H](c2ccc(CN3CCN(c4ccc(N5CCC(=O)NC5=O)cc4)CC3)cc2)C1 [Compound 78] | > 30
CN1C[C@H](Nc2cnn(C)c(=O)c2Br)C[C@H](c2ccc(C(=O)N3CCN(Cc4cccc5c4CN(C4CCC(=O)NC4=O)C5=O)CC3)cc2)C1 (stereo partly drawn) [Compound 79] | 1 to 30
CN1C[C@H](Nc2cnn(C)c(=O)c2Br)C[C@H](c2ccc(C(=O)N3CCC(c4ccc(C5CCC(=O)NC5=O)cc4)CC3)cc2)C1 (stereo partly drawn) [Compound 81] | 1 to 30
CN1C[C@H](Nc2cnn(C)c(=O)c2Br)C[C@H](c2ccc(C(=O)N3CCC(c4cccc5c4CN(C4CCC(=O)NC4=O)C5=O)CC3)cc2)C1 (stereo partly drawn) [Compound 83] | 1 to 30
CN1C[C@H](Nc2cnn(C)c(=O)c2)C[C@H](c2ccc(CN3CCC(c4ccc5c(c4)CN(C4CCC(=O)NC4=O)C5=O)CC3)cc2)C1 (stereo partly drawn) [Compound 85] | > 30
CN1C[C@H](Nc2cnn(C)c(=O)c2Br)C[C@H](c2ccc(CN3CCC(c4ccc(C5CCC(=O)NC5=O)cc4)CC3)cc2)C1 (stereo partly drawn) [Compound 87] | 1 to 30
CN1C[C@H](Nc2cnn(C)c(=O)c2Cl)C[C@H](c2ccc(C(=O)N3CCC(c4cccc5c4CN(C4CCC(=O)NC4=O)C5=O)CC3)cc2)C1 (stereo partly drawn) [Compound 91] | > 30
CN1C[C@H](Nc2cnn(C)c(=O)c2Br)C[C@H](c2ccc(CN3CCC(c4cccc5c4CN(C4CCC(=O)NC4=O)C5=O)CC3)cc2)C1 (stereo partly drawn) [Compound 92] | 1 to 30
CN1C[C@H](Nc2cnn(C)c(=O)c2Cl)C[C@H](c2ccc(CN3CCC(c4cccc5c4CN(C4CCC(=O)NC4=O)C5=O)CC3)cc2)C1 (stereo partly drawn) [Compound 94] | > 30
CN1C[C@H](Nc2cnn(C)c(=O)c2Br)C[C@H](c2ccc(C(=O)N3CCC4(CCN(c5ccc6c(c5)C(=O)N(C5CCC(=O)NC5=O)C6=O)C4)C3)cc2)C1 (stereo partly drawn) [Compound 98] | 1 to 30
CN1C[C@H](Nc2cnn(C)c(=O)c2Br)C[C@H](c2ccc(CN3CCN(Oc4cccc5c4CN(C4CCC(=O)NC4=O)C5=O)CC3)cc2)C1 (stereo partly drawn) [Compound 99] | < 1
CN1C[C@H](Nc2cnn(C)c(=O)c2Br)C[C@H](c2ccc(C(=O)N3CCN(Cc4cccc(C5CCC(=O)NC5=O)c4)CC3)cc2)C1 (stereo partly drawn) [Compound 100] | < 1
CN1C[C@H](Nc2cnn(C)c(=O)c2Br)C[C@H](c2ccc(CN3CCN(c4cccc(N5CCC(=O)NC5=O)c4)CC3)cc2)C1 [Compound 101] | 1 to 30
CN1C[C@H](Nc2cnn(C)c(=O)c2Br)C[C@H](c2ccc(C(=O)N3CCN(Cc4ccc(N5CCC(=O)NC5=O)cc4)CC3)cc2)C1 [Compound 102] | > 30
CN1C[C@H](Nc2cnn(C)c(=O)c2Br)C[C@H](c2ccc(CNC3CN(c4ccc(C5CCC(=O)NC5=O)cc4)C3)cc2)C1 (stereo partly drawn) [Compound 103] | < 1
CN1C[C@H](Nc2cnn(C)c(=O)c2Cl)C[C@H](c2ccc(CN3CCN(c4ccc(C5CCC(=O)NC5=O)cc4)CC3)cc2)C1 (stereo partly drawn) [Compound 104] | 1 to 30
CN1C[C@H](Nc2ccn(C)c(=O)c2Cl)C[C@H](c2ccc(COc3ccc4c(c3)C(=O)N(C3CCC(=O)NC3=O)C4=O)cc2)C1 (stereo partly drawn) [Compound 105] | 1 to 30
CN1C[C@H](Nc2cnn(C)c(=O)c2Br)C[C@H](c2ccc(CNc3ccc4c(c3)C(=O)N(C3CCC(=O)NC3=O)C4=O)cc2)C1 (stereo partly drawn) [Compound 106] | < 1
CN1C[C@H](Nc2cnn(C)c(=O)c2Br)C[C@H](c2ccc(C(=O)N3CCC(CN4CCC(c5ccc6c(c5)C(=O)N(C5CCC(=O)NC5=O)C6=O)CC4)CC3)cc2)C1 (stereo partly drawn) [Compound 107] | < 1
CN1C[C@H](Nc2cnn(C)c(=O)c2Br)C[C@H](c2ccc(CN3CCC4(CC3)CN(c3ccc5c(c3)C(=O)N(C3CCC(=O)NC3=O)C5=O)C4)cc2)C1 (stereo partly drawn) [Compound 108] | < 1
CN1C[C@H](Nc2cnn(C)c(=O)c2Br)C[C@H](c2ccc(CN3CCC4(CCN(c5ccc6c(c5)C(=O)N(C5CCC(=O)NC5=O)C6=O)C4)C3)cc2)C1 (stereo partly drawn) [Compound 109] | < 1
CN1C[C@H](Nc2cnn(C)c(=O)c2Br)C[C@H](c2ccc(C(=O)N3CCN(CC4CCN(c5ccc6c(c5)C(=O)N(C5CCC(=O)NC5=O)C6=O)CC4)CC3)cc2)C1 (stereo partly drawn) [Compound 111] | < 1
CN1C[C@H](Nc2cnn(C)c(=O)c2Br)C[C@H](c2ccc(C(=O)N3CCC(F)(CN4CCN(c5ccc6c(c5)C(=O)N(C5CCC(=O)NC5=O)C6=O)CC4)CC3)cc2)C1 (stereo partly drawn) [Compound 112] | < 1

Results, then the compound that gave them:

DC50 [nM] | Structure (SMILES)
< 1 | CN1C[C@H](Nc2cnn(C)c(=O)c2Br)C[C@H](c2ccc(CN3CCN(c4ccc(C5CCC(=O)NC5=O)cc4)CC3)cc2)C1 (stereo partly drawn) [Compound 69]
< 1 | CN1C[C@H](Nc2cnn(C)c(=O)c2Cl)C[C@H](c2ccc(CN3CCC(c4ccc5c(c4)CN(C4CCC(=O)NC4=O)C5=O)CC3)cc2)C1 (stereo partly drawn) [Compound 70]
< 1 | CN1C[C@H](Nc2cnn(C)c(=O)c2Br)C[C@H](c2ccc(C(=O)N3CCN(Cc4ccc5c(c4)CN(C4CCC(=O)NC4=O)C5=O)CC3)cc2)C1 (stereo partly drawn) [Compound 71]
< 1 | CN1C[C@H](Nc2cnn(C)c(=O)c2Br)C[C@H](c2ccc(CN3CCN(Cc4ccc5c(c4)CN(C4CCC(=O)NC4=O)C5=O)CC3)cc2)C1 (stereo partly drawn) [Compound 74]
< 1 | CN1C[C@H](Nc2cnn(C)c(=O)c2Br)C[C@H](c2ccc(C(=O)N3CCN(Cc4ccc(C5CCC(=O)NC5=O)cc4)CC3)cc2)C1 (stereo partly drawn) [Compound 80]
< 1 | CN1C[C@H](Nc2cnn(C)c(=O)c2Br)C[C@H](c2ccc(C(=O)N3CCC4(CCN(c5ccc(C6CCC(=O)NC6=O)cc5)C4)C3)cc2)C1 (stereo partly drawn) [Compound 82]
< 1 | CN1C[C@H](Nc2cnn(C)c(=O)c2Br)C[C@H](c2ccc(CN3CCC4(CC3)CCN(c3ccc(C5CCC(=O)NC5=O)cc3)CC4)cc2)C1 (stereo partly drawn) [Compound 88]
< 1 | CN1C[C@H](Nc2cnn(C)c(=O)c2Br)C[C@H](c2ccc(CN3CCC4(CCN(c5ccc(C6CCC(=O)NC6=O)cc5)C4)C3)cc2)C1 (stereo partly drawn) [Compound 89]
< 1 | CN1C[C@H](Nc2cnn(C)c(=O)c2Br)C[C@H](c2ccc(C(=O)N3CC(Oc4ccc5c(c4)CN(C4CCC(=O)NC4=O)C5=O)C3)cc2)C1 (stereo partly drawn) [Compound 93]
< 1 | CN1C[C@H](Nc2cnn(C)c(=O)c2Br)C[C@H](c2ccc(CN3CC(Oc4ccc5c(c4)C(=O)N(C4CCC(=O)NC4=O)C5=O)C3)cc2)C1 (stereo partly drawn) [Compound 95]
< 1 | CN1C[C@H](Nc2cnn(C)c(=O)c2Br)C[C@H](c2ccc(C(=O)N3CCC(N4CCN(c5ccc6c(c5)C(=O)N(C5CCC(=O)NC5=O)C6=O)CC4)CC3)cc2)C1 (stereo partly drawn) [Compound 96]
< 1 | CN1C[C@H](Nc2cnn(C)c(=O)c2Br)C[C@H](c2ccc(C(=O)N3CCC4(CC3)CN(c3ccc5c(c3)C(=O)N(C3CCC(=O)NC3=O)C5=O)C4)cc2)C1 (stereo partly drawn) [Compound 97]
